Assay results reported in paper PMC7112222, “Investigation of pyrimidine nucleoside analogues as chemical probes to assess compound effects on the proliferation of Trypanosoma cruzi intracellular parasites” (PLoS Neglected Tropical Diseases, 2020).
Counter-ions that a name gives are not always drawn. Like-named read-outs stand apart in the source and are kept apart here. One block for each compound: values may come before it.

How the values were obtained:
[1] = system: T. cruzi intracellular amastigotes; set-up: method as in PMID 27120069; conditions: treatment for 48 hours; cited from earlier work
[2] = system: T. cruzi intracellular amastigotes; test: Image-based assay of the number of T. cruzi infected cells (intracellular amastigotes in 3T3 host cells); format: cell-based, Trypanosoma cruzi; conditions: for inhibition at 183 µM / IC50 / Emax: Trypanosoma cruzi
Procedure: (§1) Parasites and host cells were maintained as outlined previously. Briefly, host 3T3 fibroblasts (ATCC, CCL-92) were grown in RPMI medium (Thermo Fisher Scientific, USA) with no phenol red, supplemented with 10% FBS (Thermo Fisher Scientific, USA) and incubated at 37°C in 5% CO2. Host cells were harvested at 70% confluency and were split every 2–3 days in 175 cm^2 flasks. 3T3 cells were cultured up to passage 7 as contact inhibition was reduced or lost at higher passages. Prior to infection with T. cruzi trypomastigotes, host cells were seeded at 1.2 x 10^6 cells in 75 cm^2 or 4 x 10^5 cells in 25 cm^2 flasks and grown for 24 hours before parasite addition. Parasites were added at a multiplicity of infection (MOI) of 10:1 and incubated for 24 hours before non-infected trypomastigotes were washed off the host cell bed with PBS supplemented with Ca^2+ and Mg^2+ (Thermo Fisher Scientific, USA). Incubation was continued for a further 3 days, until tissue culture trypomastigotes began to egress from host cells. Egressed parasites were used for assays or to continue the infective life cycle in vitro.
(§2) The activity of the nucleoside analogues against T. cruzi intracellular amastigotes following 24, 48 hours exposure and compound wash off, was determined using image-based techniques as previously described. Briefly, 14-point serial dilutions of the compounds in 100% DMSO were prepared and then further diluted in sterile water at a ratio of 1:21 compound: water. Five microliters of the diluted compounds were added to wells of T. cruzi infected host cells, using a MiniTrak compound handling device (Perkin Elmer, USA) with final concentrations in the plate ranging from 183 μM to 4.6 x 10^−4 μM. All experiments were performed with two separate biological replicates.
IC50 values for inhibitory activity of both the nucleoside analogues tested as DNA probes and known inhibitors tested to determine their effect on replication of T. cruzi were calculated in GraphPad Prism 5, using sigmoidal dose response with variable slope. […] The p-value for difference in the % activity at Emax concentrations for compounds with known activity (EdU identified parasites, compared to Hoechst identified parasites) against T. cruzi was determined using GraphPad Prism 5, using an unpaired student’s t-test. […] The Emax for each compound was at least two data points in from the beginning of the plateau of activity in the IC50 curve, as previously described.

3T3 cells = test: Image-based assay, effect on 3T3 host cells; format: cell-based; conditions: for Host cell 3T3 IC50 value 48 h: highest test concentration 183 μM
Procedure: as §1
as §2, with “The activity of the nucleoside analogues against T. cruzi intracellular amastigotes following 24, 48 hours exposure and compound wash off, was determined using image-based techniques as previously described.” left out
Image analysis was performed with a script developed in Columbus software (CHEMICAL LABEL INCORPORATION SCRIPT). Control wells were also imaged at an increased, 60x magnification to show the distribution of staining and the structure of the parasites within host cells. Eight background control wells consisted of infected host cells, fixed and exposed to Hoechst and the click chemistry cocktail, without the addition of the chemical probe EdU. […] The percentage activity of compounds against parasite number / infected cells (identified with Hoechst) was calculated against a positive control of 12 μM of NFX for the parasite and 30 μM of PURO the host cells; and a negative control of 0.47% DMSO. All images taken were not modified and were taken on an Opera, confocal image-based reader.

HEK293 cells = test: Redox-based assay to assess HEK293 viability; format: cell-based, human; conditions: 48 hours exposure; highest test concentration 87 μM; EdU value estimated, relative to Emax plateau of 57%
Procedure: To determine the effect of the nucleoside analogues against a replicating mammalian cell line, analogues were tested against HEK293 cells, utilising a REDOX-based metabolic assay to assess cell viability as previously described. […] Experiments were performed over two biological replicates.

T. cruzi amastigote DNA = test: Incorporation of pyrimidine nucleoside analogues into T. cruzi amastigote DNA (click chemistry, colocalisation with Hoechst); format: cell-based, Trypanosoma cruzi
Procedure: T. cruzi infected 3T3 fibroblasts were initially exposed to nucleoside analogues for 48 hours at concentrations ranging from 73 μM to 1.8 x10^-4 μM. Host cell, parasite and compound additions were carried out as previously described. Cells were then stained using a click chemistry azide cocktail, followed by Hoechst to identify nuclear material, as previously reported. The freshly prepared azide cocktail consisted of a final concentration of 5 μM of Alexa Fluor 488 azide (Thermo Fisher Scientific, USA), 1 mM copper sulfate (Sigma Aldrich, USA) and 100 mM sodium ascorbate (Sigma Aldrich, USA), in DPBS. Wells were imaged on an Opera image-based reader (Perkin Elmer, USA) at 20x magnification with 405 nm (defined as Hoechst channel) and 488 nm (defined as Alexa 488 channel) lasers using filter sets/bandwidth (emission) of 450/50 nm and 540/75 nm, respectively. To determine nucleoside analogue incorporation into T. cruzi amastigote DNA, a script was developed utilising the Columbus (PerkinElmer, USA) image-based analysis and data handling platform (CHEMICAL LABEL INCORPORATION SCRIPT). Nucleoside analogues were also tested for DNA incorporation following 2, 4 and 24 hours exposure, at the same concentrations. All experiments were performed in duplicate. The colocalisation of nucleoside analogues and Hoechst (replicating parasites) at each time point (48, 4 and 2 hours) was compared using GraphPad Prism 5.
A CHEMICAL LABEL INCORPORATION SCRIPT developed in Columbus firstly identified Hoechst stained parasites within host cells by spot analysis, utilizing the same building block analysis as we had previously developed to determine T. cruzi infected cells. The physical definition of amastigote DNA was identified by Hoechst, with the only modification being that as there was no cytoplasmic marker, thus segmentation borders in the Hoechst channel were applied, which effectively separated host cells (Fig 2). Further building blocks were added to calculate the intensity of Alexa Fluor 488 within the spots identified by Hoechst, in infected cells. This script was first applied to images to determine the mean fluorescence intensity in the Alexa 488 channel of Hoechst identified parasites, without the addition of the chemical label. The mean plus three times the standard deviation of this intensity was used to define values above background, thus the minimum intensity above background required to identify parasite DNA which successfully incorporated the chemical label. An input box was incorporated into the script, in which this minimum intensity above background was entered. Parameters of the developed script, “CHEMICAL LABEL INCORPORATION” are shown in S1 Table.
• Number of T. cruzi amastigote infected cells (≥5 parasites per cell, identified with Hoechst). • Number of Hoechst identified T. cruzi parasites (in infected cells). • Number of parasites incorporating chemical label (T. cruzi parasites with Alexa 488 intensity above background, in infected cells). • % chemical label incorporation. Alexa 488 spots in infected cells (above background) NO / Hoechst spots in infected cells NO *100 = Percentage colocalisation; where NO = number of objects. • Number of host cells.

[3] = system: T. cruzi intracellular amastigotes; test: Image-based assay of the number of T. cruzi infected cells (intracellular amastigotes in 3T3 host cells); format: cell-based, Trypanosoma cruzi; conditions: 2 and 4 hour exposures; 73 μM
[4] = system: T. cruzi intracellular amastigotes; test: Detection of T. cruzi replication following exposure to inhibitors (EdU incorporation vs Hoechst); format: cell-based, Trypanosoma cruzi; conditions: Trypanosoma cruzi; for IC50: 48 hours exposure, mean ± SD
Procedure: The addition of host cells, parasites and compounds were as described for the T. cruzi image based method previously reported. […] Addition of nuclear and cytoplasmic dyes was undertaken as previously reported and images captured on an Opera confocal image-based system at 20x magnification. Image analysis was performed with a script developed in Columbus software (CHEMICAL LABEL INCORPORATION SCRIPT). Control wells were also imaged at an increased, 60x magnification to show the distribution of staining and the structure of the parasites within host cells. Eight background control wells consisted of infected host cells, fixed and exposed to Hoechst and the click chemistry cocktail, without the addition of the chemical probe EdU. […] All images taken were not modified and were taken on an Opera, confocal image-based reader.

[5] = 24 hours exposure, highest test concentration 183 μM, read-out: T. cruzi 24 IC50 value
[6] = 24 hours exposure, read-out: T. cruzi 24 relative Emax (in brackets) (converted)
[7] = 48 hours incubation, highest test concentration 183 μM, read-out: T. cruzi 48 IC50 value
[8] = 48 hours incubation, read-out: T. cruzi 48 relative Emax (in brackets) (converted)

Compound: CN1CCC[C@@H]1CCO[C@](C)(c1ccccc1)c1ccc(Cl)cc1 [CF, clemastine fumarate]
T. cruzi infected cells, identified with Hoechst, remaining [1]: 3%

Compound: C#Cc1cn([C@H]2C[C@H](O)[C@@H](CO)O2)c(=O)nc1N [EdC, 5-ethynyl-2′-deoxy-cytidine]
SI (selectivity index to T. cruzi intracellular amastigotes in relation to HEK293 cells) ([2]; 48 hours exposure): > 26 | inhibition at 183 µM ([2]; at 183 μM, 48 hours incubation, wash off, further 72 hours, read-out: T. cruzi Wash off percentage inhibition at the highest test concentration): 90% | IC50 [2, 5]: 12.5 ± 2 µM | Emax [2, 6]: 69% | IC50 [2, 7]: 7.1 ± 3.7 µM | Emax [2, 8]: 87% | activity against host cells after short exposure (3T3 cells; 2 and 4 hour exposures, 73 μM): less than 20% | Host cell 3T3 IC50 value 48 h (3T3 cells): NA (NA = ≤50% activity at the highest concentration tested and an IC50 value could not be determined) | activity against 3T3 cells in the image-based assay (3T3 cells; 48 hours): < 20% | HEK293 IC50 value (HEK293 cells): NA (NA = ≤50% activity at the highest concentration tested and an IC50 value could not be determined) | % of parasites with incorporation (T. cruzi amastigote DNA; 2 hours, 37 μM): 71 ± 2.9% | % of parasites with incorporation (T. cruzi amastigote DNA; 4 hours, 7.3 μM): 84 ± 3.5% | incorporation into T. cruzi DNA following 48 hours incubation (in words) (T. cruzi amastigote DNA): incorporated | % of cells that incorporated the DNA chemical label (T. cruzi amastigote DNA; 48 hours, 0.73 μM): 89 ± 2.7% | activity against T. cruzi amastigote growth after short exposure [3]: less than 20%

Compound: C#Cc1cn([C@@H]2O[C@H](CO)[C@@H](O)[C@@H]2I)c(=O)[nH]c1=O [I-ara-EdU, (2′S)-2′-deoxy-5-ethynyl-2′-iodo-uridine]
T. cruzi 24 IC50 value ([2]; 24 hours exposure, highest test concentration 183 μM): NA (NA = ≤50% activity at the highest concentration tested and an IC50 value could not be determined) | T. cruzi Wash off IC50 value ([2]; 48 hours incubation, compound wash off, further 72 hours without compound, highest test concentration 183 μM): NA (NA = ≤50% activity at the highest concentration tested and an IC50 value could not be determined) | T. cruzi 48 IC50 value ([2]; 48 hours incubation, highest test concentration 183 μM): NA (NA = ≤50% activity at the highest concentration tested and an IC50 value could not be determined) | inhibition at 183 µM ([2]; 48 h, 183 μM, 48 hours incubation, read-out: inhibition of T. cruzi growth at highest test concentration): ≤ 50% | Host cell 3T3 IC50 value 48 h (3T3 cells): NA (NA = ≤50% activity at the highest concentration tested and an IC50 value could not be determined) | HEK293 IC50 value (HEK293 cells): NA (NA = ≤50% activity at the highest concentration tested and an IC50 value could not be determined) | incorporation into T. cruzi DNA following 48 hours incubation (in words) (T. cruzi amastigote DNA): did not | incorporation (no incorporation observed) (T. cruzi amastigote DNA; 48 hours, concentrations up to a maximum of 73 μM): < 20%

IC50 ([4]; then 0.37 μM EdU for 4 hours, number of EdU incorporating parasites, read-out: IC50 value Amastigotes (EdU)): 0.21 ± 0.0018 µM | IC50 ([4]; number of Hoechst identified parasites in infected cells, read-out: IC50 value Amastigotes (Hoechst)): 0.32 ± 0.024 µM
Compound: CC1CS(=O)(=O)CCN1/N=C/c1ccc([N+](=O)[O-])o1 (centres unmarked) [NFX, nifurtimox]
SI (selectivity index to T. cruzi intracellular amastigotes in relation to HEK293 cells) ([2]; 48 hours exposure): > 143 | IC50 ([2]; read-out: IC50 value of positive assay control in the 2 and 4 hour exposure experiment, control exposure for 48 hours): 1 ± 0.101 µM | IC50 [2, 5]: 1.72 ± 0.86 µM | Emax [2, 6]: 100% | IC50 ([2]; 48 hours exposure, well-established intracellular infection assay, mean ± SD, POSA value based on sub-optimal effect (Emax 75%), read-out: IC50 value Infected cells (Hoechst)): 0.8 ± 0.09 µM | IC50 ([2]; 48 hours incubation, compound wash off, further 72 hours without compound, highest test concentration 183 μM, read-out: T. cruzi Wash off IC50 value): 1.41 ± 1.08 µM | Emax ([2]; 48 hours incubation, wash off, further 72 hours without compound, read-out: T. cruzi Wash off relative Emax (in brackets) (converted)): 100% | IC50 [2, 7]: 0.97 ± 0.026 µM | Emax [2, 8]: 100% | Host cell 3T3 IC50 value 48 h (3T3 cells): NA (NA = ≤50% activity at the highest concentration tested and an IC50 value could not be determined) | HEK293 IC50 value (HEK293 cells): NA (NA = ≤50% activity at the highest concentration tested and an IC50 value could not be determined) | inhibition at 63 µM ([4]; 2 h, read-out: mean inhibition of incorporation of EdU into the parasite DNA): 57 ± 9.1%
